GI50 and TGI data for seven compounds are collected here from PubChem BioAssay (NCI).

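Cultured in 96-well plates, cells were exposed to test compound for 48 hours across five concentrations. GI50 = concentration required for 50% inhibition of growth. TGI denotes the concentration required for complete inhibition of growth.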 Bounds are passed on as bounds.

Some test systems named below: NCI/ADR-RES ovarian; NCI-H23 lung; ACHN renal; SK-OV-3 ovarian; KM12 colon; RXF 393 renal; HOP-62 NSCLC; SF-539 CNS; M14 melanoma; HCT-116 colon.
Common to all, as to assay: NCI-60 cell line screen, 48 h

In the case of `O=C(CCCCCCCn1cc(-c2cccnc2)nn1)Nc1ccccc1-c1ccccc1`, the GI50 with NCI/ADR-RES ovarian is 0.0688 µM; with NCI-H23 lung it was 13.8 µM; in the assay on ACHN renal it was 9.39 µM; with SK-OV-3 ovarian, 12.5 µM; in the assay on KM12 colon, 0.607 µM; with RXF 393 renal, above 43.6 µM. Also, the GI50 with HOP-62 NSCLC is 26.2 µM; in the assay with SF-539 CNS, 0.0522 µM; in the assay on M14 melanoma it was 0.0914 µM; in the assay on HCT-116 colon it was 0.0361 µM. Further, the TGI in the assay with NCI/ADR-RES ovarian is 27.4 µM; in the assay with NCI-H23 lung, above 100 µM; in the assay with ACHN renal, above 100 µM; in the assay with SK-OV-3 ovarian, above 100 µM; with KM12 colon, 24.2 µM; with RXF 393 renal, above 100 µM. Moreover, the TGI with HOP-62 NSCLC is above 100 µM; in the assay with SF-539 CNS, above 78.8 µM; in the assay with M14 melanoma, 16.5 µM; with HCT-116 colon, above 32.9 µM.
As for `CCCOc1ccc(-c2nc(-c3ccc(N=Cc4ccc(N(CCOS(C)(=O)=O)CCOS(C)(=O)=O)cc4C)cc3)cs2)cc1`, the TGI in the assay with NCI/ADR-RES ovarian is above 84.6 µM; in the assay on NCI-H23 lung, 30.8 µM; with ACHN renal, 18.7 µM; with SK-OV-3 ovarian, 43.2 µM; in the assay on KM12 colon it was 42 µM; in the assay with RXF 393 renal, 28.9 µM. Moreover, the TGI was 43.7 µM in the assay on HOP-62 NSCLC, 48.8 µM in the assay on SF-539 CNS, above 86.4 µM in the assay on M14 melanoma and above 85.2 µM in the assay on HCT-116 colon.
Take `CC1=CC(=O)CC(C)(C)C1(O)/C=C/C(C)=C/C(=O)O` (configuration not stated): the TGI in the assay with NCI/ADR-RES ovarian, with NCI-H23 lung, with ACHN renal, with SK-OV-3 ovarian, in the assay on KM12 colon and in the assay on RXF 393 renal was above 100 µM each time. Moreover, the TGI in the assay with HOP-62 NSCLC, in the assay on SF-539 CNS, in the assay on M14 melanoma and in the assay with HCT-116 colon was above 100 µM throughout.
For `Sc1ccc2ccccc2c1CNCc1ccccc1`, the TGI stood at 98.1 µM with NCI/ADR-RES ovarian; 59.7 µM in the assay on NCI-H23 lung; 57.9 µM in the assay on ACHN renal; 41.1 µM in the assay with SK-OV-3 ovarian; 30.8 µM with KM12 colon; 26 µM in the assay with RXF 393 renal. The TGI was found to be 34.9 µM with HOP-62 NSCLC, 29.3 µM in the assay with SF-539 CNS, 27.6 µM in the assay with M14 melanoma and 33.4 µM in the assay with HCT-116 colon.
As for `C=C(C)[C@@H]1CC[C@]2(C(N)=O)CC[C@]3(C)[C@H](CC[C@@H]4[C@@]5(C)CC[C@H](O)C(C)(C)[C@@H]5CC[C@]43C)[C@@H]12`, the GI50 with NCI/ADR-RES ovarian was 3.17 µM; with NCI-H23 lung it was 2.26 µM; in the assay with ACHN renal, 2.44 µM; in the assay with SK-OV-3 ovarian, 8.18 µM; in the assay on KM12 colon, 3.2 µM; with RXF 393 renal it was 2.1 µM. In addition, the GI50 is 3.21 µM in the assay with HOP-62 NSCLC, 1.78 µM in the assay with SF-539 CNS, 6.05 µM in the assay on M14 melanoma and 1.97 µM in the assay on HCT-116 colon. For the same compound, the TGI with NCI/ADR-RES ovarian amounted to 12.5 µM; with NCI-H23 lung it was 5.21 µM; in the assay with ACHN renal it was 6.82 µM; with SK-OV-3 ovarian, 29.8 µM; in the assay with KM12 colon, 11.9 µM; in the assay on RXF 393 renal, 5.39 µM. Moreover, the TGI in the assay on HOP-62 NSCLC is 12.8 µM; in the assay on SF-539 CNS it was 3.4 µM; in the assay with M14 melanoma, above 100 µM; in the assay on HCT-116 colon, 3.96 µM.
As for `CC(C)CC1C(=O)N2CCC[C@H]2C2(O)O[C@](NC(=O)C3C=C4c5cccc6[nH]c(Br)c(c56)C[C@H]4N(C)C3)(C(C)C)C(=O)N12` (some centres not stated), the GI50 with NCI/ADR-RES ovarian was 8.29 µM; with NCI-H23 lung it was 8.22 µM; in the assay with ACHN renal it was 8.9 µM; with SK-OV-3 ovarian, 9.66 µM; in the assay on KM12 colon, 6.23 µM; in the assay on RXF 393 renal, 4.87 µM. For the same compound, in the assay on M14 melanoma, the GI50 was above 100 µM. The TGI with NCI/ADR-RES ovarian, in the assay with NCI-H23 lung, in the assay on ACHN renal, in the assay with SK-OV-3 ovarian, with KM12 colon and in the assay with RXF 393 renal was above 100 µM in each case. In addition, the TGI in the assay on HOP-62 NSCLC, in the assay on SF-539 CNS, with M14 melanoma and with HCT-116 colon was above 100 µM throughout.
On to `C[C@H]1CC[C@H]([C@@H](C)[C@H]2[C@@H](O)C[C@H]3[C@@H]4CC[C@H]5C[C@@H](O)CC[C@]5(C)[C@H]4CC[C@]23C)NC1`, for which the TGI came to 32.6 µM with NCI/ADR-RES ovarian; 32.5 µM with NCI-H23 lung; 53.7 µM in the assay on ACHN renal; 31.7 µM with SK-OV-3 ovarian; 30.2 µM in the assay with KM12 colon; 47.7 µM in the assay with RXF 393 renal. Moreover, the TGI with HOP-62 NSCLC worked out at 58.1 µM; in the assay with SF-539 CNS, 53.7 µM; in the assay with M14 melanoma, 59.2 µM; in the assay with HCT-116 colon, 31.7 µM.
